Reference: patent US4990522A, “Esterified ephedrine derivatives with prolonged antiulcer activity” (Establissement Texcontor, priority 1987, dated 1991)
Where two headings read alike, the source gives them in different places.

Tests used:
[1] = tested on: ulcers induced by cold stress; test: Antiulcer activity against ulcers induced by cold stress; type: in vivo, rat (Wistar); conditions: rat, oral
Experimental: 3. ANTIULCER ACTIVITY against ulcers induced by cold stress: This trial was carried out on Wistar rats weighing about 300 grams each.
The animals were divided randomly into groups of 10 animals each and kept without food for 18 hours before the trial, but had unrestricted water. […]
After ligature, the animals were placed in a refrigerator at a temperature of between 2° C. and 4° C. for two hours.
After this time the rats were sacrificed, their stomachs were withdrawn and opened along the small curvature, and the gastric mucosa checked.
The number of ulcers was counted and their relative diameters measured. From these individual data the mean value for each treatment group was obtained and the inhibition capacity calculated as a percentage relative to the control group, using the following formula: [formula] where C is the mean value in mm for the control group and T the mean value for the group treated with the derivative under examination.

[2] = Acute toxicity in mice, endoperitoneal administration (LD50, Lichtfield and Wilcoxon); design: species or system mouse (Swiss albino); conditions: in vivo, ip, mouse, mortality within eight days
Experimental: (§1) Acute toxicity was determined on Swiss albino mice having an average weight of about 20 grams and on Wistar rats having an average weight of 150±10 grams by endoperitoneal administration. All animals were kept fasting for 12 hours before the trial. For the trial, 10 animals, namely 5 males and 5 females, were used for each dose level.
(§2) The LD50 values, expressed as mg/kg, are calculated on the basis of the mortality determined within eight days from administration, in accordance with the Lichtfield and Wilcoxon method.

[3] = tested on: ulcers induced by ligature of the pylorus; test: Antiulcer activity against ulcers induced by ligature of the pylorus (Shay test); type: in vivo, rat (Sprague Dawley); conditions: rat, oral
Experimental: 2. ANTIULCER ACTIVITY against ulcers induced by ligature of the pylorus (Shay test): Groups of 10 Sprague Dawley rats of body weight between 200 and 250 grams were placed in cages under conditions of standard temperature (21°±2° C.), standard relative humidity (60-70%) and standard light (12 hours per day).
The animals were fed with rat pellets and with water at will.
The derivatives to be tested were administered orally 6, 12, 24 and 36 hours before ligature of the pylorus, after dispersion in physiological solution using Tween 80 as dispersant in a quantity of 1% and carboxymethylcellulose in a quantity of 0.2%. The volume administered was 10 ml/kg.
Before ligature, the rats had been kept without food for 18 hours but with free access to water, the pylorus ligature then being made under ether anesthetic, with suture of the peritoneum and of the abdominal wall.
The animals were then kept without food or water, and 18 hours after ligature were sacrificed using chloroform, their stomachs then being withdrawn and opened along the small curvature.
The gastric surface was extended to observe the ulcers, the evaluation being made by measuring their maximum width.

[4] = Acute toxicity in rats, endoperitoneal administration (LD50, Lichtfield and Wilcoxon); design: species or system rat (Wistar); conditions: in vivo, ip, rat, mortality within eight days
Experimental: as §1, §2

[5] = prior art, cited from earlier work
[6] = species not given, prior art; cited from earlier work
[7] = 6 h before cold stress, read-out: ED50 by oral administration at 6 h before commencement of cold stress
[8] = 12 h before cold stress, * P < 0.05 versus WAS 4303 (so in the source), read-out: ED50 by oral administration at 12 h before commencement of cold stress
[9] = 24 h before cold stress, * P < 0.05 versus WAS 4303 (so in the source), read-out: ED50 by oral administration at 24 h before commencement of cold stress
[10] = 36 h before cold stress, * P < 0.05 versus WAS 4303 (so in the source), read-out: ED50 by oral administration at 36 h before commencement of cold stress
[11] = 6 h before pylorus ligature, read-out: ED50 by oral administration at 6 h before pylorus ligature
[12] = 12 h before pylorus ligature, * P < 0.05 versus WAS 4303 (so in the source), read-out: ED50 by oral administration at 12 h before pylorus ligature
[13] = 24 h before pylorus ligature, * P < 0.05 versus WAS 4303 (so in the source), read-out: ED50 by oral administration at 24 h before pylorus ligature
[14] = 36 h before pylorus ligature, * P < 0.05 versus WAS 4303 (so in the source), read-out: ED50 by oral administration at 36 h before pylorus ligature

SMILES	ED50 [1, 7]	ED50 [1, 8]	ED50 [1, 9]	ED50 [1, 10]	LD50 at 192 h [2]	ED50 [3, 11]	ED50 [3, 12]	ED50 [3, 13]	ED50 [3, 14]	LD50 at 192 h [4]	antiulcer activity when administered intraperitoneally ([5]; intraperitoneal, experimental tests)	duration of activity [5]	LD50 for intraperitoneal administration [6]
C[C@@H]([C@H](OC(=O)C(N)Cc1cnc[nH]1)c1ccccc1)N(C)CC=C1c2ccccc2CCc2ccccc21 (some centres unmarked) [ET 2002]	0.7 mg/kg	1 mg/kg	1.4 mg/kg	1.9 mg/kg	535 mg/kg	0.4 mg/kg	0.5 mg/kg	0.8 mg/kg	1.1 mg/kg	590 mg/kg			
C[C@@H]([C@H](OC(=O)c1cccs1)c1ccccc1)N(C)CC=C1c2ccccc2CCc2ccccc21 (relative stereo) [ET 2004]	0.6 mg/kg	0.8 mg/kg	1.4 mg/kg	1.8 mg/kg	630 mg/kg	0.5 mg/kg	0.4 mg/kg	0.6 mg/kg	1 mg/kg	681 mg/kg			
CCCCCCCCCC(=O)O[C@H](c1ccccc1)[C@H](C)N(C)CC=C1c2ccccc2CCc2ccccc21 (relative stereo) [ET 2001]	0.4 mg/kg	0.9 mg/kg	1.2 mg/kg	2.1 mg/kg	585 mg/kg	0.5 mg/kg	0.5 mg/kg	0.7 mg/kg	1.3 mg/kg	510 mg/kg			
C[C@@H]([C@H](O)c1ccccc1)N(C)CC=C1c2ccccc2CCc2ccccc21 (relative stereo) [WAS 4304, reference compound]	0.4 mg/kg	1.6 mg/kg	2.5 mg/kg	2.8 mg/kg	127 mg/kg	0.2 mg/kg	1.1 mg/kg	1.8 mg/kg	2.4 mg/kg	87 mg/kg	very interesting antiulcer activity	very limited duration	115 mg/kg
C[C@@H]([C@H](OC(=O)c1cccnc1)c1ccccc1)N(C)CC=C1c2ccccc2CCc2ccccc21 (relative stereo) [ET 2003]	0.6 mg/kg	0.9 mg/kg	1.3 mg/kg	1.7 mg/kg	580 mg/kg	0.4 mg/kg	0.4 mg/kg	0.7 mg/kg	1.2 mg/kg	618 mg/kg			
